Test systems include NCI/ADR-RES; K562; NCI-H522; A549; TK-10; KM12; SK-MEL-2; 786-0; SK-MEL-28; EKVX; HOP-92; SF-295; COLO 205; OVCAR-8; MDA-MB-435; SF-539; SF-268; MDA-N; SK-OV-3; MDA-MB-231.
Assay in all cases: DTP human tumour cell line panel, 48 h

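How tested: cells in 96-well plates exposed to compound for 48 hours at five concentrations. GI50: concentration for 50% inhibition of growth.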 Active and inactive are the calls of the source. Cut-off read from the data, not from the text of the source: active = GI50 up to about 1.1 µM and inactive = higher.

For orientation: GI50 means the concentration at which growth is held to half of that of the control. As to `CCC1CCC2c3c([nH]c4ccc(C)cc34)C3C(=O)N(N(C)C)C(=O)C3C2C1` (stereo not given), the GI50 is 4.35 µM (inactive) in the assay on NCI/ADR-RES; 2.62 µM (inactive) in the assay on K562; 0.748 µM (active) with NCI-H522; 15.9 µM (inactive) with A549; 32.4 µM (inactive) with TK-10; 6.52 µM (inactive) in the assay on KM12. The GI50 with SK-MEL-2 is 24.6 µM (inactive); in the assay on 786-0, 7.24 µM (inactive); in the assay with SK-MEL-28, > 83.4 µM (inactive); in the assay with EKVX, 26.7 µM (inactive); in the assay with HOP-92, 38.7 µM (inactive); with SF-295 it was 5.11 µM (inactive). The GI50 with COLO 205 was 4.36 µM (inactive); with OVCAR-8 it was 22.2 µM (inactive); in the assay on MDA-MB-435 it was 1.37 µM (inactive); in the assay on SF-539, 18.2 µM (inactive); in the assay on SF-268 it was 7.62 µM (inactive); with MDA-N, 1.09 µM (active). For the same molecule, the GI50 in the assay on SK-OV-3 is > 100 µM (inactive); with MDA-MB-231, 72.8 µM (inactive).
In the case of `CC[C@@]1(O)C(=O)OCc2c1cc1n(c2=O)Cc2c-1nc1ccccc1c2Cl`, the GI50 was < 0.01 µM (active) in the assay on NCI/ADR-RES; 0.0329 µM (active) in the assay with K562; < 0.0127 µM (active) in the assay on NCI-H522; < 0.01 µM (active) with A549; 6.21 µM (inactive) in the assay on TK-10; 0.124 µM (active) in the assay with KM12. For the same molecule, the GI50 was 0.396 µM (active) in the assay on SK-MEL-2; < 0.01 µM (active) in the assay on 786-0; 0.204 µM (active) with SK-MEL-28; 0.659 µM (active) in the assay on EKVX; 0.0724 µM (active) in the assay with HOP-92; < 0.01 µM (active) in the assay on SF-295. Moreover, the GI50 in the assay with COLO 205 was 0.658 µM (active); with OVCAR-8, 0.0146 µM (active); with MDA-MB-435 it was 0.0984 µM (active); in the assay with SF-539, < 0.01 µM (active); in the assay with SF-268, < 0.01 µM (active); with MDA-N, 0.069 µM (active). Also, the GI50 is 0.0217 µM (active) with SK-OV-3 and 8.32 µM (inactive) with MDA-MB-231.
As for `COC(=O)C1=C(C(=O)OC)SC(=C2SCSC3=C2SC(C(=O)OC)=C(C(=O)OC)C32SC3=C(CCCC3)S2)S1`, the GI50 is > 100 µM (inactive) in the assay on NCI/ADR-RES; > 100 µM (inactive) with K562; > 100 µM (inactive) in the assay on NCI-H522; > 100 µM (inactive) in the assay on A549; 32.4 µM (inactive) in the assay on TK-10; > 100 µM (inactive) in the assay with KM12. The GI50 in the assay with SK-MEL-2 is > 100 µM (inactive); with 786-0, 74.1 µM (inactive); in the assay with SK-MEL-28, > 100 µM (inactive); in the assay on EKVX it was > 100 µM (inactive); in the assay with HOP-92 it was 56.2 µM (inactive); with SF-295, 83.9 µM (inactive). For the same molecule, the GI50 is > 100 µM (inactive) in the assay on COLO 205; > 100 µM (inactive) in the assay with OVCAR-8; > 100 µM (inactive) in the assay on MDA-MB-435; 44.5 µM (inactive) in the assay on SF-539; > 100 µM (inactive) in the assay on SF-268; > 100 µM (inactive) with MDA-N. Also, the figures for the GI50 in the assay on SK-OV-3 and with MDA-MB-231 were > 100 µM (inactive) and 95.3 µM (inactive), respectively.
Take `O=S1(=O)c2ccccc2N2C(c3ccccc3)=NOC2(c2ccccc2)CC1c1ccc(Br)cc1` (stereo not given): the GI50 in the assay with NCI/ADR-RES, with K562, with NCI-H522, in the assay with A549, in the assay on TK-10 and in the assay with KM12 was > 100 µM (inactive) throughout. For the same molecule, the GI50 in the assay on SK-MEL-2 was > 100 µM (inactive); with 786-0, > 100 µM (inactive); in the assay on SK-MEL-28, > 100 µM (inactive); with EKVX it was > 100 µM (inactive); with HOP-92, 32.4 µM (inactive); with SF-295, > 100 µM (inactive). Also, the GI50 with COLO 205, in the assay on OVCAR-8, in the assay with MDA-MB-435, in the assay with SF-539, in the assay with SF-268 and in the assay on MDA-N was > 100 µM (inactive) in each case. The GI50 with SK-OV-3 and in the assay with MDA-MB-231 was > 100 µM (inactive) each time.
For the molecule `CN(CCN(C)Cc1ccc(Cl)c(Cl)c1)CCN1CCCC1`, the GI50 in the assay on NCI/ADR-RES is 67.3 µM (inactive); in the assay with K562, 9.16 µM (inactive); in the assay with NCI-H522, 19.6 µM (inactive); in the assay with A549, 22.6 µM (inactive); in the assay with TK-10, 40 µM (inactive); in the assay on KM12, 29.9 µM (inactive). Further, the GI50 in the assay on SK-MEL-2 was 24.2 µM (inactive); with 786-0, 17.1 µM (inactive); in the assay with SK-MEL-28, 6.78 µM (inactive); with EKVX, > 64 µM (inactive); in the assay on HOP-92, 4.44 µM (inactive); in the assay on SF-295, 26.1 µM (inactive). In addition, the GI50 in the assay on COLO 205 was 19.2 µM (inactive); in the assay on OVCAR-8 it was 20.1 µM (inactive); in the assay on MDA-MB-435, 7.82 µM (inactive); with SF-539, 19.6 µM (inactive); in the assay on SF-268, 10.4 µM (inactive); with MDA-N, 13.2 µM (inactive). Also, the GI50 in the assay with SK-OV-3 was 71.9 µM (inactive); in the assay with MDA-MB-231 it was 18.8 µM (inactive).
Take `Cc1cc(=O)oc2c(CNC(C)C(=O)O)c(O)ccc12` (stereo not given): the GI50 in the assay with NCI/ADR-RES was > 100 µM (inactive); in the assay with K562 it was > 100 µM (inactive); in the assay with NCI-H522, > 100 µM (inactive); with A549, > 100 µM (inactive); in the assay on TK-10, 95.7 µM (inactive); in the assay on KM12, > 100 µM (inactive). Besides, the GI50 in the assay on SK-MEL-2 is > 100 µM (inactive); with 786-0 it was > 100 µM (inactive); in the assay on SK-MEL-28, > 100 µM (inactive); in the assay on EKVX it was > 100 µM (inactive); in the assay on HOP-92 it was 65.3 µM (inactive); with SF-295, > 100 µM (inactive). Moreover, the GI50 in the assay with COLO 205, in the assay with OVCAR-8, in the assay on MDA-MB-435, in the assay on SF-539, in the assay with SF-268 and in the assay on MDA-N was > 100 µM (inactive) in each case. The GI50 with SK-OV-3 and in the assay with MDA-MB-231 was > 100 µM (inactive) throughout.
Regarding `CCOC(=O)C1=C(C)C(C(=O)OC)/C(=C/c2cccc3cccnc23)C1=O` (stereo not given), the GI50 in the assay on NCI/ADR-RES, in the assay with K562, in the assay on NCI-H522, in the assay with A549, in the assay on TK-10 and with KM12 was > 10 µM (inactive) in each case. Besides, the GI50 in the assay on SK-MEL-2, in the assay on 786-0, in the assay on SK-MEL-28, with EKVX, in the assay with HOP-92 and with SF-295 was > 10 µM (inactive) throughout. The GI50 in the assay with COLO 205, in the assay with OVCAR-8, with MDA-MB-435, in the assay with SF-539, in the assay on SF-268 and in the assay on MDA-N was > 10 µM (inactive) each time. Besides, the GI50 in the assay with SK-OV-3 and in the assay with MDA-MB-231 was > 10 µM (inactive) throughout.

For the origin of these results see ChEMBL document CHEMBL1201862, “PubChem BioAssay data set” (2004).
